Experiment: stability in sheep plasma (LC-MS)
Conditions: 37° C., different time intervals, diazepam internal standard, new peak of the hydrolysed product arises
Experimental: Compound 8a and diazepam (internal standard) were incubated at 37° C. for different time intervals and their stability was checked using an LC-MS technique.

2-cyano-2-(4-((trifluoromethyl)thio)benzamido)propyl ferrocenoate [Compound 8a]
stability in sheep plasma (LC-MS peak of the compound): decreasing within 24 hours

Reference: US9663545B2, “Organometallic 2-cyano-2-aminobenzoate-propyl derivates and their use as anthelmintics” (UNIVERSITÄT ZÜRICH, priority 2013, dated 2017)
